Reference: patent publication US20140023611A1 (priority 2010, published 2014)

Target: T1, rat NaP2b (SLC34A2) (Rattus norvegicus, UniProt Q9JJ09)
T1 construct: host or cells: HEK293
T1 sequence (Q9JJ09 1-695): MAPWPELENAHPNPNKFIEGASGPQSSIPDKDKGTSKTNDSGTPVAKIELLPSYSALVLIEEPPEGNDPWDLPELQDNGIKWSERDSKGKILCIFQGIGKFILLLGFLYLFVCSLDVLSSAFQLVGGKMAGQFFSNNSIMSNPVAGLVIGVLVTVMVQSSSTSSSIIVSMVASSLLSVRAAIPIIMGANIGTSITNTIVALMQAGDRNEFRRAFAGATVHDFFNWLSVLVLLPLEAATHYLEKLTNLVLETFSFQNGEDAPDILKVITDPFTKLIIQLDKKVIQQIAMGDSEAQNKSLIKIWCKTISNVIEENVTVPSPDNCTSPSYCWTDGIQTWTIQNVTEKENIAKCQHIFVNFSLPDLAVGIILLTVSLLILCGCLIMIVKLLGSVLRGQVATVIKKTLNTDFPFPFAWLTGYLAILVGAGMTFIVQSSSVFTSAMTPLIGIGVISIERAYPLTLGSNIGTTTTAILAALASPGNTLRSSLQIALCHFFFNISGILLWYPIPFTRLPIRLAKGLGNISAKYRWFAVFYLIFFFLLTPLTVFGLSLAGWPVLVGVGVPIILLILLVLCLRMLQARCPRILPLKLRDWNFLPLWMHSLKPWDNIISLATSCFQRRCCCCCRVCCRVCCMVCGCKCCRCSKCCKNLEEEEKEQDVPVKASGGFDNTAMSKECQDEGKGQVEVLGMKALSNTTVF
Assay: Inhibition of NaP2b-mediated Pi (33P) uptake in transfected HEK293 cells, rat NaP2b
Type: cell-based
Conditions: 33P Pi uptake, 0.1 mM phosphate, value given as pIC50 range
How it was run: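 The cells transiently expressed NaP2b after Lipofectamine transfection. Each compound was run in duplicate over twelve concentrations, 0.1 nM–30 uM.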

IC50	Compound	pIC50 range for rat Nap2b
1 to 7.94 µM	CN(CCc1ccccn1)C(=O)c1cccc(C(=O)Nc2ccc(N3CCCCC3)cc2-c2cc(C(=O)NCc3cccc(C(F)(F)F)c3)ccn2)c1 [Example 110]	–
–	CCN(CC)c1ccc(NC(=O)c2ccc(CCCOCCOCCOCC[N+]34CCC(CC3)CC4)cc2)c(-c2cc(C(=O)NCc3cccc(C(F)(F)F)c3)ccn2)c1 [Example 331, 1-(2-(2-(2-(3-(4-(4-(diethylamino)-2-(4-(3-(trifluoromethyl)benzylcarbamoyl)pyridin-2-yl)phenylcarbamoyl)phenyl)propoxy)ethoxy)ethoxy)ethyl)-1-azonia-bicyclo[2.2.2]octane]	5.1-6.0
1 to 7.94 µM	O=C(NCc1cccc(C(F)(F)F)c1)c1ccnc(-c2cc(N3CCCCC3)ccc2NC(=O)c2cccc(CSc3ncc(C(=O)O)c(O)n3)c2)c1 [Example 8.14]	–
1 to 7.94 µM	CC(=O)N1CCN(CCN(C)C(=O)c2cccc(C(=O)Nc3ccc(N4CCCCC4)cc3-c3cc(C(=O)NCc4cccc(C(F)(F)F)c4)ccn3)c2)CC1 [Example 81, N1-(2-(4-Acetylpiperazin-1-yl)ethyl)-N1-methyl-N3-(4-(piperidin-1-yl)-2-(4-(3-(trifluoromethyl)benzylcarbamoyl)pyridin-2-yl)phenyl)isophthalamide]	–
1 to 7.94 µM	O=C(NCc1cccc(C(F)(F)F)c1)c1ccnc(-c2cc(N3CCCCC3)ccc2NC(=O)c2cccc(CSCCCCO)c2)c1 [Example 8.4]	–
10 to 31.6 µM	O=C(O)CCSCc1cccc(C(=O)Nc2ccc(N3CCCCC3)cc2-c2cc(C(=O)NCc3cccc(CN4CCOCC4)c3)ccn2)c1 [Example 1.16]	–
10 to 31.6 µM	Cc1ccc(C(=O)Nc2ccnc(-c3cc(N4CCCCC4)ccc3NC(=O)c3cccc(CSCCC(=O)O)c3)c2)cc1C [Example 74, 3-((3-((2-(4-(3,4-Dimethylbenzamido)pyridin-2-yl)-4-(piperidin-1-yl)phenyl)carbamoyl)benzyl)thio)propanoic acid]	–
10 to 31.6 µM	O=C(NCCOCCO)c1cccc(C(=O)Nc2ccc(N3CCCCC3)cc2-c2cc(NCc3cccc(C(F)(F)F)c3)ncn2)c1 [Example 64, N1-(2-(2-Hydroxyethoxy)ethyl)-N3-(4-(piperidin-1-yl)-2-(6-((3-(trifluoromethyl)benzyl)amino)pyrimidin-4-yl)phenyl)isophthalamide]	–
10 to 31.6 µM	CC(=O)N1CCN(CCN(C)Cc2cccc(C(=O)Nc3ccc(N4CCCCC4)cc3-c3cc(C(=O)NCc4cccc(C(F)(F)F)c4)ccn3)n2)CC1 [Example 60, 6-(((2-(4-Acetylpiperazin-1-yl)ethyl)(methyl)amino)methyl)-N-(4-(piperidin-1-yl)-2-(4-((3-(trifluoromethyl)benzyl)carbamoyl)pyridin-2-yl)phenyl)picolinamide]	–
10 to 31.6 µM	CC(=O)N1CCN(C(=O)c2cccc(C(=O)Nc3ccc(N4CCCCC4)cc3-c3cc(C(=O)NCc4cccc(C(F)(F)F)c4)ccn3)c2)CC1 [Example 4.6, 2-(2-(3-(4-Acetylpiperazine-1-carbonyl)benzamido)-5-(piperidin-1-yl)phenyl)-N-(3-(trifluoromethyl)benzyl)isonicotinamide]	–
1 to 7.94 µM	CCN(CC)c1ccc(NC(=O)c2cccc(CCCOCCOCCOCCOCCNC(=O)C34CC5CC(CC(C5)C3)C4)c2)c(-c2cc(C(=O)N[C@H]3CCCc4ccccc43)ccn2)c1 [Example 322]	–
1 to 7.94 µM	O=C(O)c1ccc(SCc2cccc(C(=O)Nc3ccc(N4CCCCC4)cc3-c3cc(C(=O)NCc4cccc(C(F)(F)F)c4)ccn3)c2)cc1 [Example 8.23]	–
10 to 31.6 µM	O=C(O)CCSCc1cccc(C(=O)Nc2ccc(N3CCCCC3)cc2-c2cc(C(=O)Nc3nc4ccccc4[nH]3)ccn2)c1 [Example 1.19]	–
1 to 7.94 µM	O=C(NCc1cccc(C(F)(F)F)c1)c1ccnc(-c2cc(N3CCCCC3)ccc2NC(=O)c2cccc(CSCCO)c2)c1 [Example 8.2]	–
1 to 7.94 µM	O=C(O)CCSCc1cccc(C(=O)Nc2ccc(N3CCCCC3)cc2-c2cc(C(=O)NC3CCCc4ccccc43)ccn2)c1 (stereo not shown) [Example 1.13]	–
10 to 31.6 µM	CC(=O)N[C@H]1CCN(C(=O)c2cccc(C(=O)Nc3ccc(N4CCCCC4)cc3-c3cc(C(=O)NCc4cccc(C(F)(F)F)c4)ccn3)c2)C1 [Example 4.9, (S)-2-(2-(3-(3-Acetamidopyrrolidine-1-carbonyl)benzamido)-5-(piperidin-1-yl)phenyl)-N-(3-(trifluoromethyl)benzyl)isonicotinamide]	–

IC50	Compound	pIC50 range for rat Nap2b
10 to 31.6 µM	O=C(O)CCOCCOCCOCCNC(=O)CCOCCOCCOCCOCCSCc1cccc(C(=O)Nc2ccc(N3CCCCC3)cc2-c2cc(C(=O)NCc3cccc(C(F)(F)F)c3)ccn2)c1 [Example 155, 17-oxo-1-(3-(4-(piperidin-1-yl)-2-(4-(3-(trifluoromethyl)benzylcarbamoyl)pyridin-2-yl)phenylcarbamoyl)phenyl)-5,8,11,14,21,24,27-heptaoxa-2-thia-18-azatriacontan-30-oic acid]	–
1 to 7.94 µM	COc1ccccc1CNC(=O)c1ccnc(-c2cc(N3CCCCC3)ccc2NC(=O)c2cccc(C(=O)N(C)CCN3CCOCC3)c2)c1 [Example 124, N1-(2-(4-((2-methoxybenzyl)carbamoyl)pyridin-2-yl)-4-(piperidin-1-yl)phenyl)-N3-methyl-N3-(2-morpholinoethyl)isophthalamide]	–
1 to 7.94 µM	O=C(O)CCOCCOCCOCCOCCSCc1cccc(C(=O)Nc2ccc(N3CCCCC3)cc2-c2cc(C(=O)NCc3cccc(C(F)(F)F)c3)ccn2)c1 [Example 8.7]	–
1 to 7.94 µM	O=C(O)CCCc1ccc(SCc2cccc(C(=O)Nc3ccc(N4CCCCC4)cc3-c3cc(C(=O)NCc4cccc(C(F)(F)F)c4)ccn3)c2)cc1 [Example 8.9]	–
1 to 7.94 µM	CCN(CC)c1ccc(NC(=O)c2cccc(C(=O)N(C)CCN(C)CCOCCOCCOCCNC(=O)c3ccc(O)cc3)c2)c(-c2cc(C(=O)N[C@H]3CCCc4ccccc43)ccn2)c1 [Example 345, (S)—N^1-(4-(Diethylamino)-2-(4-(1,2,3,4-tetrahydronaphthalen-1-ylcarbamoyl)pyridin-2-yl)phenyl)-N^3-(1-(4-hydroxyphenyl)-14-methyl-1-oxo-5,8,11-trioxa-2,14-diazahexadecan-16-yl)-N^3-methylisophthalamide]	–
< 1 µM	O=C(O)Cc1ccc(SCc2cccc(C(=O)Nc3ccc(N4CCCCC4)cc3-c3cc(C(=O)NCc4cccc(C(F)(F)F)c4)ccn3)c2)cc1 [Example 8.17]	–
10 to 31.6 µM	CC(=O)NC1CCN(Cc2cccc(C(=O)Nc3ccc(N4CCCCC4)cc3-c3cc(C(=O)NCc4cccc(C(F)(F)F)c4)ccn3)n2)CC1 [Example 57, 6-((4-Acetamidopiperidin-1-yl)methyl)-N-(4-(piperidin-1-yl)-2-(4-((3-(trifluoromethyl)benzyl)carbamoyl)pyridin-2-yl)phenyl)picolinamide]	–
10 to 31.6 µM	COc1ccc(CNC(=O)c2ccnc(-c3cc(N4CCCCC4)ccc3NC(=O)c3cccc(CSCCC(=O)O)c3)c2)cc1C(F)(F)F [Example 1.27]	–
1 to 7.94 µM	CCN(CC)c1ccc(NC(=O)c2cccc(CCCOCCOCCOCCOCCNS(=O)(=O)c3ccc(CCC(=O)N(CCOC)CCOCCOCCOCCOCCOCCOCCOC)cc3)c2)c(-c2cc(C(=O)NCc3cccc(C(F)(F)F)c3)ccn2)c1 [Example 295, 2-(5-(diethylamino)-2-(3-(1-(4-(23-(2-methoxyethyl)-24-oxo-2,5,8,11,14,17,20-heptaoxa-23-azahexacosan-26-yl)phenylsulfonamido)-3,6,9,12-tetraoxapentadecan-15-yl)benzamido)phenyl)-N-(3-(trifluoromethyl)benzyl)isonicotinamide]	–
1 to 7.94 µM	O=C(NCc1cccc(C(F)(F)F)c1)c1ccnc(-c2cc(N3CCCCC3)ccc2NC(=O)c2cccc(C(=O)N(CCN3CCOCC3)Cc3ccccc3)c2)c1 [Example 4.12, N1-Benzyl-N1-(2-morpholinoethyl)-N3-(4-(piperidin-1-yl)-2-(4-((3-(trifluoromethyl)benzyl)carbamoyl)pyridin-2-yl)phenyl)isophthalamide]	–
10 to 31.6 µM	CC(=O)NC(C(=O)O)C(C)(C)SCc1cccc(C(=O)Nc2ccc(N3CCCCC3)cc2-c2cc(C(=O)NCc3cccc(C(F)(F)F)c3)ccn2)c1 (stereo not shown) [Example 8.11]	–
1 to 7.94 µM	O=C(O)CCSCc1cccc(C(=O)Nc2ccc(N3CCCCC3)cc2-c2cc(C(=O)NCc3ccc(Oc4ccccc4)cc3)ccn2)c1 [Example 1.40]	–
1 to 7.94 µM	O=C(O)CCSCc1cccc(C(=O)Nc2ccc(N3CCCCC3)cc2-c2cc(C(=O)NCc3ccc(F)c(C(F)(F)F)c3)ccn2)c1 [Example 1.28]	–
1 to 7.94 µM	Cc1cc(C(=O)Nc2ccc(N3CCCCC3)cc2-c2cc(C(=O)NCc3cccc(C(F)(F)F)c3)ccn2)cc(C(=O)N(C)CCN2CCOCC2)c1 [Example 11.2, N1,5-Dimethyl-N1-(2-morpholinoethyl)-N3-(4-(piperidin-1-yl)-2-(4-((3-(trifluoromethyl)benzyl)carbamoyl)pyridin-2-yl)phenyl)isophthalamide]	–
1 to 7.94 µM	O=C(NCc1cccc(C(F)(F)F)c1)c1ccnc(-c2cc(N3CCCCC3)ccc2NC(=O)c2cccc(C(=O)N3CCC(CO)CC3)c2)c1 [Example 4.30]	–
